# Assays:
# E. coli = assay: Conventional agar dilution method; type: cell-based; conditions: Escherichia coli
# Source text: In order to confirm that the MIC determined in Example 2 of the present invention is not different from that determined in conventional methods, an agar dilution method was used to determine the MIC of cephalexin to E. coli.
# E. coli ATCC 25922 [1] = assay: Dielectrophoretic test (cell elongation, crossover frequency); type: cell-based, Escherichia coli; conditions: for dielectrophoretic behaviour and cell elongation: alternating current frequency 600 kHz
# Procedure: Phosphate-buffered saline (PBS) containing 137 mM NaCl, 2.7 mM KCl, 4.3 mM Na2HPO4, and 1.47 mM KH2PO4 at pH 7.4 was prepared. An oral β-lactam antibiotic, cephalexin (Sigma, USA), which generally is used in the treatment of urinary tract infection (UTI), was dissolved in 1×PBS and prepared into a stock concentration of 1024 μg/mL. This stock concentration was diluted with trypticase soy broth (TBS) into 4 μg/mL and 32 μg/mL.
# Among different cell lines of Escherichia coli causing urinary infection, E. coli ATCC 25922 was selected and cultured with TBS under shaking at 37° C. Then, the bacterial concentration of the culture suspensions was adjusted to 1.5×10^6 cells/ml by a densitometer (VITEK 2, BioMérieux).
# (§1) The bacterial suspension (100 μl) and TBS culture media (containing the antibiotic at different concentrations, 900 μl) were mixed ([…]) and incubated at 37° C. in a shaking incubator for 60 minutes. After the treatment, the bacterial suspensions (500-1000 μl) were centrifugated at 3000-5000 rpm for 3-5 minutes. The supernatant of the bacterial suspensions was removed. Finally, 0.2 M 4-(2-hydroxyethyl)-1-piperazineethanesulfonic acid (HEPES) buffer (500 μl, σ=3 mS/cm, Invitrogen 15630) was added to the remaining bacteria and the formed bacterial suspensions were shaken using a vortex mixer (Shin Kwang, Taiwan) for 30 seconds to avoid aggregation of the bacteria for the following dielectrophoretic tests.
# (§2) The bacterial suspensions (5 μl) were pipetted into a sample well of the chip of Preparation Example 1. The electrode array was then connected to a function generator (Fluke 284 USA) and supplied with an alternating current signal or dielectrophoresis. The frequency of E. coli migrating from the electrode center to the electrode edge, was determined as crossover frequency (cof). During dielectrophoresis, the images were observed and recorded through an inverted microscope (Olympus IX70, Japan) and a CCD camera (Microfire, Optronics).
# In the same manner as that of Example 1, the antibiotic solutions at 1 μg/mL, 2 μg/mL, 4 μg/mL, 8 μg/mL, 16 μg/mL, 32 μg/mL, and 64 μg/mL were prepared and their action periods of time were 30, 60, and 120 minutes. In addition, the chip of Preparation Example 2 was used in the analysis. For measurement of the cell length of E. coli during dielectrophoresis, when the bacteria were straightly arranged on an ITO quadruple electrode by field-induced dielectrophoretic force, the cell length was analyzed by the image software (FreePlus32).
# (§3) In the same manner as that of Example 1, a cefazolin solution at 2 μg/mL was prepared and used to act on E. coli ATCC 25922, w958, and BCRC 15501 for 120 minutes for the following dielectrophoretic testing. Among these cell lines, E. coli w958 from National Cheng Kung University Hospital in Taiwan is a drug-resistant bacterium isolated from clinical samples.
# E. coli w958 [2] = assay: Dielectrophoretic test (cell elongation); type: cell-based, Escherichia coli; conditions: cefazolin 2 μg/mL, 120 minutes
# Procedure: as §1, §2, §3
# E. coli BCRC 15501 [3] = assay: Dielectrophoretic test (cell elongation); type: cell-based, Escherichia coli; conditions: cefazolin 2 μg/mL, 120 minutes
# Procedure: as §1, §2, §3
# E. coli w958 [4] = assay: Conventional broth dilution method; type: cell-based; conditions: Escherichia coli, 0-16 μg/mL tested, read-out: inhibitory concentration (MIC)
# Procedure: (§4) In order to confirm that the results from Example 3 of the present invention are not different from those from a conventional method, a broth dilution method was carried out on E. coli ATCC 25922, w958, and BCRC 15501 at 0 μg/mL, 0.5 μg/mL, 1 μg/mL, 2 μg/mL, 4 μg/mL, 8 μg/mL, 16 μg/mL of cefazolin. The results are shown in FIGS. 6 (a) to (c), wherein No denotes no bacteria.
# E. coli ATCC 25922 [5] = assay: Conventional broth dilution method; type: cell-based; conditions: Escherichia coli, ATCC25922, 0-16 μg/mL tested, read-out: inhibitory concentration (MIC)
# Procedure: as §4
# E. coli BCRC 15501 [6] = assay: Conventional broth dilution method; type: cell-based; conditions: Escherichia coli, BCRC15501, 0-16 μg/mL tested, read-out: inhibitory concentration (MIC)
# Procedure: as §4
SMILES,MIC (E. coli) [µg/mL],crossover frequency (cof) (E. coli ATCC 25922 [1]; 32 μg/mL for 60 minutes),"cell length (E. coli ATCC 25922 [1]; 1-64 μg/mL, 30, 60, 120 minutes, FIGS. 3 (a) and (c))","MIC (E. coli ATCC 25922 [1]; Escherichia coli, ATCC25922, 1 h, determined by dielectrophoresis, 60 minutes, read-out: minimum inhibitory concentration (MIC)) [µg/mL]","morphological cell elongation (E. coli ATCC 25922 [1]; FIG. 2 (c), text prints 60 minutes, figure legend 120 minutes)","cell elongation (E. coli ATCC 25922 [1]; antibiotic 4 μg/ml, 60 minutes, alternating current frequency 4 MHz)","dielectrophoretic behaviour and cell elongation (E. coli ATCC 25922 [1]; antibiotic 4 μg/ml, 60 minutes)","cell elongation (E. coli ATCC 25922 [1]; antibiotic 32 μg/ml for 1 hour, alternating current frequency 4 MHz)",dielectrophoretic behaviour and cell elongation (E. coli ATCC 25922 [1]; antibiotic 32 μg/ml for 1 hour),"morphological changes in bacteria (E. coli ATCC 25922 [1]; antibiotic treatment for 30 minutes, FIG. 2 (a))","morphological cell elongation (E. coli ATCC 25922 [1]; antibiotic treatment for 60 minutes, FIG. 2 (b))",drug resistance of the bacterium (E. coli w958 [2]),morphological cell elongation (E. coli w958 [2]),cell elongation (E. coli BCRC 15501 [3]),drug resistance of the bacterium (E. coli BCRC 15501 [3]),"cell elongation (E. coli ATCC 25922 [1]; cefazolin 2 μg/mL, 120 minutes)","drug resistance of the bacterium (E. coli ATCC 25922 [1]; cefazolin 2 μg/mL, 120 minutes)",MIC (E. coli w958 [4]) [µg/mL],MIC (E. coli ATCC 25922 [5]) [µg/mL],MIC (E. coli BCRC 15501 [6]) [µg/mL]
CC1=C(C(=O)O)N2C(=O)[C@@H](NC(=O)[C@H](N)c3ccccc3)[C@H]2SC1 [cephalexin],32 to 64,about 600 kHz,cell length increases as the concentration and action time increase,32,morphological cell elongation occurs obviously even at a low concentration of the antibiotic,some bacteria are slightly elongated,"some bacteria are still arranged at the center of the electrodes by negative dielectrophoretic force. However, the others are adsorbed at the edges of the electrode by positive dielectrophoretic force and slightly elongated",all bacteria have become elongated,all bacteria are adsorbed at the edges of the electrode by positive dielectrophoretic force and have become elongated,distinction between morphological changes in bacteria is difficult,morphological cell elongation occurs obviously as the antibiotic concentrations increase,–,–,–,–,–,–,–,–,–
Cc1nnc(SCC2=C(C(=O)O)N3C(=O)[C@@H](NC(=O)Cn4cnnn4)[C@H]3SC2)s1 [cefazolin],–,–,–,–,–,–,–,–,–,–,–,resistant to cefazolin,morphological cell elongation is unobvious,obvious cell elongation occurs,not resistant to cefazolin,obvious cell elongation occurs,not resistant to cefazolin,> 16,2,2
